In US7723064B2, “Methods for monitoring patients for efficacy of an antiplatelet therapy regimen” (Siemens Healthcare Diagnostics Inc., priority 2004, dated 2010):

Assays:
[1] = tested on: CD62P (P-selectin) expression on platelets; experiment: Platelet CD62P (P-selectin) expression by fluorescence flow cytometry in whole blood of patients before and after anti-platelet therapy and PTCA; assay type: in vivo, human; conditions: for mean CD62P expression (percent positive events): Clopidogrel patients n=29, 300 mg loading dose and PTCA, baseline 9.5±3.3%; for mean CD62P expression (percent positive events) / CD62P percent positive expression / CD62P expression (percent positive events): mean±SE; for CD62P percent positive expression: patients with high baseline platelet activation, baseline 23.4±6.6%, p<0.01; for CD62P expression (percent positive events): abciximab patients n=15, 0.25 mg/kg bolus plus infusion and PTCA, baseline 9.3±4.0%
Description: (§1) Patients. A total of 44 patients who underwent elective percutaneous coronary angioplasty and stenting were evaluated. The study was approved by the institutional committee on human research. Patients were enrolled in the study after informed consent had been obtained. Their baseline variables including age, gender, smoking history, risk factors, antecedents and medication were documented. These patients received either a loading dose of Clopidogrel (300 mg) before the beginning of the PTCA procedure followed by 75 mg daily for 1 month or intravenously a 0.25 mg/kg, bolus of Abciximab before the beginning of the PTCA procedure followed by a 0.125 μg/kg/mn infusion for 12 h.
(§2) Blood collection. Blood was drawn with a 21-gauge needle into EDTA (5 mM) tubes, mixed immediately with the anticoagulant and avoiding frothing during the mixing procedure. The first 1-2 ml of blood were discarded to avoid the effects of traces of thrombin generated during venipuncture. Serum was collected for CRP measurements. Whole blood specimens for measurement of the ADVIA® 120 Hematology System platelet parameters and flow cytometry analysis were taken prior to baseline, 2 hours, and 24 hours after administration of anti-platelet therapy and PTCA. For platelet activation measurements, all specimens were processed within 1 h after blood collection.
Fluorescence flow cytometry analysis. Whole blood samples were fixed with methanol-free paraformaldehyde (final concentration 0.5%). Fixed blood (5 μl) was incubated at room temperature for 15 min in the dark with monoclonal antibody CD61a-FITC. (10 μl) to identify the platelets and CD62P-PE (10 μl) to measure the expression of P-selectin. Platelets labeled with FITC or PE-conjugated isotype control antibody were used as control for nonspecific staining.
Samples were diluted to 1 ml with PBS. FACScan calibration and compensation were performed as recommended by the manufacturer. Five thousand (5,000) CD61a positive events were acquired on the FACScan flow cytometer (Becton Dickinson, Franklin Lakes, N.J.) equipped with Lysis II software. Data analysis was performed using a threshold based on the FITC-fluorescence correlating to the platelet specific binding of CD61a-FITC antibodies. A gate was drawn around the fluorescent platelet population. The CD61a-FITC labeled platelets that were also positive for PE-conjugated activation marker antibody (CD62P) was quantitated and presented as percentage of positive events.
(§3) Patients. A total of 44 patients who underwent elective percutaneous coronary angioplasty and stenting were evaluated Patients were enrolled in the study after informed consent had been obtained. Their baseline variables including age, gender, smoking history and medication were documented. The treatments were assigned based on the angiographic characteristics. Patients with presence of thrombus and high risk vessel disease were assigned to Abciximab. Two thirds (n=29) of patients received a loading dose of Clopidogrel (300 mg) before the beginning of the PTCA procedure followed by 75 mg daily for 1 month. One third (n=15) of patients received a 0.25 mg/kg bolus of Abciximab intravenously before the beginning of the PTCA procedure followed by a 0.125 μg/kg/min infusion for 12 h. These patients also received Clopidogrel a designated number of hours after PTCA.
Collection of blood. Blood was drawn with a 21-gauge needle into EDTA (5 mM) tubes, mixed immediately with the anticoagulant, and avoiding frothing during the mixing procedure. The first 1-2 ml of blood were discarded to avoid the effects and traces of thrombin generated during venipuncture. Universal precautions were taken at all times during phlebotomy. […]

[2] = tested on: platelets (platelet activation); experiment: Mean platelet component concentration (MPC, platelet density) on the ADVIA 120 Hematology System in whole blood of patients before and after anti-platelet therapy and PTCA; assay type: in vivo, human; conditions: for mean MPC level: Clopidogrel patients n=29, baseline 27.8±0.4 g/dL; for mean MPC level / MPC level: mean±SE; for MPC level: abciximab patients n=15, baseline 28.0±0.3 g/dL
Description: as §1, §2
Bayer ADVIA 120 automated hematology system platelet density measurement. The two-dimensional platelet method is based on the analysis of platelets in whole blood by flow cytometry using the ADVIA 120. The system was standardized and calibrated as per the manufacturer's instructions. The ADVIA 120 Hematology System was quality-controlled using TESTpoint Hematology control reagents (Bayer HealthCare, LLC, Tarrytown, N.Y.). The whole blood specimens anticoagulated with EDTA were processed within 1 h after specimen collection. […] See Macey M. G. et al., Cytometry (1999) 38:250-255; Chapman E. S. et al., Thromb. Haemost. (2003) 89:1004-1015; Ahnadi C. E. et al., Thromb. Haemost (2003) 90:940-948. In this study, MPC determinations were acquired as a measure of platelet activation at baseline, 2 hours, and 24 hours after anti-platelet drug therapy.
as §3
Collection of blood. Blood was drawn with a 21-gauge needle into EDTA (5 mM) tubes, mixed immediately with the anticoagulant, and avoiding frothing during the mixing procedure. The first 1-2 ml of blood were discarded to avoid the effects and traces of thrombin generated during venipuncture. Universal precautions were taken at all times during phlebotomy. Whole blood specimens for measurement of the ADVIA 120 System platelet parameters and CD62P-PE flow cytometry analysis were taken prior to baseline, 2 h, 5 h, and 24 h after administration of a loading charge of Clopidogrel and percutaneous transluminal coronary angioplasty (PTCA), and prior to, 10 min, 2 h, and 24 h after administration of the Abciximab bolus and PTCA. All specimens were processed within 1 h after blood collection.
Bayer ADVIA 120 Automated Hematology System platelet density measurement. […]

[3] = tested on: platelet activation markers CD62, CD63, and PAC-1; conditions: after stimulation with ADP or thrombin; healthy subjects and patients after myocardial infarction; cited from earlier work

CC(=O)Oc1ccccc1C(=O)O [aspirin]
platelet inhibition effect ([1]; patients on aspirin therapy before admission, by the classic (CD62P) or new (MPC) platelet activation measurements): not demonstrated

COC(=O)[C@H](c1ccccc1Cl)N1CCc2sccc2C1 [Clopidogrel]
mean CD62P expression (percent positive events) ([1]; 2 h): 3.1±1.8%
mean CD62P expression (percent positive events) ([1]; 5 h): 1.2±0.7%
mean CD62P expression (percent positive events) ([1]; 24 h): 1.8±1.1%
platelet activation as determined by both CD62P decrease and increasing MPC ([1]; group of patients with the greatest baseline platelet activation): significant reduction
CD62P percent positive expression ([1]; 2 h): 2.0±1.0%
CD62P percent positive expression ([1]; 5 h): 0.3±0.1%
CD62P percent positive expression ([1]; 24 h): 1.5±0.5%
mean MPC level ([2]; 2 h): 28.4 ± 0.3 g/dL
mean MPC level ([2]; 5 h): 28.9 ± 0.2 g/dL
mean MPC level ([2]; 24 h): 28.7 ± 0.2 g/dL
MPC value ([2]; patients with high baseline platelet activation, 2 h, baseline 25.7±0.8 g/dL, p<0.01): 28.0 ± 0.5 g/dL
MPC value ([2]; patients with high baseline platelet activation, 5 h, baseline 25.7±0.8 g/dL, p<0.01): 28.8 ± 0.3 g/dL
MPC value ([2]; patients with high baseline platelet activation, 24 h, baseline 25.7±0.8 g/dL, p<0.01): 28.4 ± 0.3 g/dL
expression of platelet activation markers CD62, CD63, and PAC-1 [3]: suppresses expression

B1: Abciximab (antibody, chains of the INN, looked up, V domains shown)
VH: EVQLQQSGTVLARPGASVKMSCEASGYTFTNYWMHWVKQRPGQGLEWIGAIYPGNSDTSYIQKFKGKAKLTAVTSTTSVYMELSSLTNEDSAVYYCTLYDGYYVFAYWGQGTLVTVSA
VL: EIVLTQSPVTLSVTPGDSVSLSCRASRDISNNLHWFQQTSHESPRLLIKYASQSMSGIPSRFSGSGSGTDFTLSINSVETEDFGMYFCQQTNSWPYTFGGGTKLEIK
modifications: Fab
notes: the monoclonal antibody, abciximab
CD62P expression (percent positive events) ([1]; 2 h): 7.9±5.4%
CD62P expression (percent positive events) ([1]; 24 h): 0.7±0.3%
CD62P-PE value ([1]; one patient, 2 hours after Abciximab and angioplasty, baseline 4.2%, complications of pacemaker installation): 75%
MPC level ([2]; 10 min): 27.9 ± 0.3 g/dL
MPC level ([2]; 2 h): 28.0 ± 0.4 g/dL
MPC level ([2]; 24 h): 28.4 ± 0.2 g/dL
MPC value ([2]; one patient, 2 hours after Abciximab and angioplasty, baseline 28.3 g/dL, complications of pacemaker installation): 22.8 g/dL
